The source made the active and inactive calls. The rule behind the calls is not given here.
Key:
[1] = test system: Human immunodeficiency virus 1; assay: Compound was tested for anti HIV-1 and cytopathic effects in XTT assay;IA means inactive; type: functional, organism-based
[2] = test system: HIV-1 reverse transcriptase (Human immunodeficiency virus 1); assay: Compound was tested for HIV-1 RT inhibition in in vitro assay;IA means inactive

SMILES	Activity [1]	inhibition [2]
Cc1cn([C@H]2C[C@H](CO)C(CO)(CO)O2)c(=O)[nH]c1=O	inactive	inactive
Nc1ccn([C@@H]2C[C@H](CO)C(CO)(CO)O2)c(=O)n1	inactive	inactive
Nc1ccn([C@H]2C[C@H](CO)C(CO)(CO)O2)c(=O)n1	inactive	inactive
Cc1cn([C@@H]2C[C@H](CO)C(CO)(CO)O2)c(=O)[nH]c1=O	inactive	inactive
